One data set relates to MRSA 494 biofilm. The experiment in a line: Biofilm disruption, pin lid method (Calgary biofilm device). The settings on record: FIG. 14, FIG. 15. The data set is classed as cell-based, Staphylococcus aureus. How it is done: The Minimum Inhibitory […] (MIC) in presence of biofilm was determined using the pin lid method or Calgary biofilm device (Barber et al., Antimicrob Agents Chemother. 58(5):2989-92, 2014; De Oliveira et al., Int J Mol Sci. 17(9), 2016). This method is used for defining the biofilm MIC vs. antibiotic or combination of antibiotics.

The next data set concerns ATCC 29213. As to the kind of experiment: Time-kill analysis in 24 well plates (CLSI). It counts as cell-based, Staphylococcus aureus. The settings on record: tested at 1/2×MIC, 1×MIC, 24 h, FIG. 13B. How it is done:
Time kill analysis was performed in 24 well plates according to CLSI guidelines (Patel 2017. M100: Performance Standards for Antimicrobial Susceptibility Testing, 27th Edition .224). Bactericidal activity was defined as >3 log CFU/ml reduction from baseline (initial inoculum). […] Lower the MIC, the better is the MRSA killing.

The next data set relates to ATCC 29213 (MSSA strain). The experiment in a line: MIC by broth microdilution susceptibility testing. The data set is classed as cell-based. The settings on record: Staphylococcus aureus. The procedure:
(§1) Susceptibility Testing. […] The strains tested were SA 494 and ATCC 29213.
(§2) Susceptibility testing. […] The treatment groups were compared to their commercial drug counterparts, both individually and in combination. […] SA 494 is the MRSA strain, and ATCC 29213 is the MSSA strain. The results were obtained as follows:
(§3) To test the effect of the presence of one drug that may enhance the MIC of the other in combination, combination MIC studies were performed. […] The results for MIC of liposomal CFZ in 0.5×the MIC of liposomal VAN were as follows:
(§4) However, liposomal VAN+CFZ [L (VAN+CFZ)] performed much better as compared to commercial VAN+CFZ (a mixture of non-liposomal antibiotics) in MRSA 494/MSSA 29213. The L(VAN+CFZ) has more than >2-4 fold improvement of MIC as compared to VAN+CFZ. Lower the MIC, the better is the MRSA killing.
For orientation: Broth dilution looks for growth in wells or tubes with falling amounts of substance.

Another data set deals with SA 494 (MRSA strain). The experiment in a line: MIC by broth microdilution susceptibility testing. The data set is classed as cell-based. The settings on record: Staphylococcus aureus. How it is done: as §1, §2, §3, §4
The conditions of data set [1]: cited from earlier work.

Like-named read-outs stand apart in the source and are kept apart here.

On to `CN[C@H](CC(C)C)C(=O)N[C@H]1C(=O)N[C@@H](CC(N)=O)C(=O)N[C@H]2C(=O)N[C@H]3C(=O)N[C@H](C(=O)N[C@H](C(=O)O)c4cc(O)cc(O)c4-c4cc3ccc4O)[C@H](O)c3ccc(c(Cl)c3)Oc3cc2cc(c3O[C@@H]2O[C@H](CO)[C@@H](O)[C@H](O)[C@H]2O[C@H]2C[C@](C)(N)[C@H](O)[C@H](C)O2)Oc2ccc(cc2Cl)[C@H]1O` [CVAN, vancomycin], for which, in the data set with MRSA 494 biofilm, the “biofilm disruption (in words)” value was “barely showed any anti-biofilm effect”. For the same compound, the time-kill result in the data set with ATCC 29213 is “grow above the initial inoculum at 24 h”. The MIC – broadly, the smallest concentration in the dilution series that meets the test's criterion for growth inhibition – in the data set on ATCC 29213 (MSSA strain) (24 h, read-out: MC Values (MIC)) came out at 0.5 µg/mL; in the data set with ATCC 29213 (MSSA strain) (read-out: MIC values), 0.5 µg/mL; in the data set with SA 494 (MRSA strain) (MRSA, 24 h, read-out: MC Values (MIC)) it was 1 µg/mL; in the data set with SA 494 (MRSA strain) (MRSA, read-out: MIC values) it was 1 µg/mL.
Take `Cc1nnc(SCC2=C(C(=O)O)N3C(=O)[C@@H](NC(=O)Cn4cnnn4)[C@H]3SC2)s1` [CCFZ, cefazolin]: the log P (as a rule, a log measure of how a compound divides between an organic and an aqueous phase) in data set [1] is on record as −0.58. Besides, the MIC with ATCC 29213 (MSSA strain) (MSSA 29213, Example 4 table, read-out: MIC values) is 0.5 µg/mL; with ATCC 29213 (MSSA strain) (strain 29213 (MSSA), broth microdilution, 24 h at 35° C., Example 1, read-out: MC Values (MIC)), 0.5 µg/mL; in the data set on SA 494 (MRSA strain) (MRSA 494, Example 4 table, read-out: MIC values), above 64 µg/mL; in the data set with SA 494 (MRSA strain) (strain 494 (MRSA), broth microdilution, 24 h at 35° C., Example 1, read-out: MC Values (MIC)), above 16 µg/mL.

(Values after patent US12551527B2, “Drug delivery systems for treatment of infections” (Wayne State University, priority 2017, dated 2026).)
